Values quoted from earlier work in US11697638B2, “5-methoxy-N,N-dimethyltryptamine crystalline forms” (Small Pharma Ltd, priority 2021, dated 2023).
Like-named read-outs stand apart in the source and are kept apart here.

Conditions: self-report, uncontrolled setting

For `COc1ccc2[nH]cc(CCN(C)C)c2c1` [5-MeO-DMT, 5-methoxy-N,N-dimethyltryptamine], the “participants with psychiatric diagnoses indicating that their symptoms improved following 5-MeO-DMT use” value (“participants” below) (anxiety) is listed as 69%, the “participants” value (depression) is listed as 77% and the “participants” value (post-traumatic stress disorder) is listed as 79%.
